Measurements published in patent US20090275529A1, “METHOD FOR IMPROVING CARDIOVASCULAR RISK PROFILE OF COX INHIBITORS” (priority 2008, published 2009).
Where “and” joins values, the source holds several entries; their conditions need not be identical. Identical values can stand only once. Entries after “also recorded” stand apart in the source; their conditions may differ.

Key:
THP-1 macrophages = assay: Foam cell formation in acetylated LDL-loaded THP-1 macrophages (oil red O); format: cell-based, human
Experimental: THP-1 human monocytes (1×10^6 cells/ml) in 12 well plates were treated with phorbol dibutyrate, 300 nM (Sigma) for 48 hr at 37° C. to facilitate differentiation into macrophages. The differentiated macrophages were washed three times with PBS, then incubated alone or in the presence of 10 μM NS-398 (37° C., 5% CO2, 18 hours). Cells were cholesterol-loaded with acetylated LDL (50 μg/ml) and further incubated in RPMI (37° C., 5% CO2) for 48 hours. Studies were performed in triplicate.
Immediately following incubation, media was aspirated and cells were fixed in the same 12 well plates used for incubation, with 4% paraformaldehyde in water, for 2-4 minutes. Cells were stained with 0.2% Oil-Red-O in methanol for 1-3 min. Cells were observed via light microscope (Axiovert 25-Zeiss) with 100× magnification and then photographed using a Kodak DC 290 Zoom Digital Camera. The number of foam cells formed in each condition were calculated manually and presented as percentage foam cell formation.
(§1) Media was aspirated and cells were rinsed 3 times with Dulbecco's Phosphate Buffered Saline (PBS) without Ca++ and Mg++. […] THP-1 macrophages were cholesterol-loaded with 50 μg/ml acetylated LDL and incubated an additional 48 h prior to oil red O staining.
Following incubation, media was aspirated and cells were fixed with 4% paraformaldehyde in water, for 2-4 min. Cells were stained with 0.4% trypan blue for 1-3 min, washed in PBS, and then stained with 0.2% oil-Red-O in methanol for 1-3 min. Observation and photography of cells was performed respectively via light microscope (NIKON Eclipse TE300) with 40× magnification and SONY Progressive 3CCD color video camera. The number of foam cells formed in each condition were calculated manually and presented as percentage foam cell formation.

[1] = tested on: ABCA1 protein in THP-1 cells; assay: ABCA1 protein by Western blot in THP-1 cells; format: cell-based, human; conditions: 50 μM
Experimental: ABCA1 Detection: For ABCA1 detection, macrophage cell lysates were electrophoresed for 1.5 hr at 100V (10% polyacrylamide gel), then transferred to a nitrocellulose membrane. The membrane was blocked for 4 hours at 4° C. in blocking solution then incubated overnight at 4° C. in a 1:200 dilution of rabbit anti-ABCA1antibody (Santa Cruz Biotechnology). The following day, the membrane was washed 5 times in TTBS for 5 mins per wash then incubated at room temperature in a 1:5000 dilution of ECL donkey anti-rabbit IgG Horseradish peroxidase-linked species-specific whole antibody. Development proceeded as described above for the 27-OHase antibody.
as §1
Western Blots: Total cell lysate protein samples (10 μg/lane) were boiled for 5 min, loaded onto a 7.5% polyacrylamide gel, electrophoresed for 1.5 hr at 100V then transferred to a nitrocellulose membrane in a semi-dry transblot apparatus for 1 hr at 100V. For ABCA1 detection, the primary antibody was a rabbit anti-human ABCA1 antibody (1:2000 dilution, Santa Cruz Biotechnology). […]

[2] = tested on: cholesterol 27-OHase mRNA in THP-1 cells; assay: 27-OHase mRNA by real-time PCR (QRT-PCR) in THP-1 monocytes/macrophages; conditions: for effect on 27-OHase message: THP-1 monocytes/macrophages; for increase in 27-OHase message: THP-1 cells; for 27-OHase mRNA, % of control: THP-1 monocytes, MTX 5 μM, 18 hr, untreated = 100%, n=3
Experimental: THP-1 cells: When THP-1 cells had reached 10^6 cells/ml, media was aspirated and cells were rinsed twice with Dulbecco's Phosphate Buffered Saline (DPBS) without calcium and magnesium. The monocytes were then incubated for 24-48 hours in six well plates, (37° C., 5% CO2) under the following conditions: a) RPMI control; b) RPMI containing 5 mM MTX; c) RPMI containing NS-398 (50 μM); d) RPMI containing NS-398 (50 μM) and MTX (increasing doses of 0.1 μM, 0.5 μM and 5 μM); e) RPMI containing IFN-γ (500 U/ml); f) RPMI containing IFN-γ (500 U/ml) and 5 μM MTX.
TUP-1 macrophages were exposed to the following conditions: a) RPMI control; b) RPMI containing ZM-241385 (10 μM); c) RPMI containing MTX (5 μM); d) RPMI containing IFN-γ (500 U/ml); e) RPMI containing IFN-γ (500 U/ml) and 5 μM MTX; f) RPMI containing ZM-241385 (10 μM) and MTX (5 μM); g) RPMI containing IFN-γ (500 U/ml), ZM-241385 (10 μM) and MTX (5 μM); h) RPMI containing NS-398 (50 μM), ZM-241385 (10 μM) and MTX (5 μM).
Other experimental conditions of TUP-1 and PBMC included the following parameters and conditions: when THP-1 monocytes had reached 10^6 cells/ml, media was aspirated and cells were rinsed twice with Dulbecco's Phosphate Buffered Saline (DPBS) without calcium and magnesium.
RNA isolation and quantitation: RNA was isolated using 1 ml Trizol reagent per 10^6 cells and dissolved in nuclease-free water. The quantity of total RNA from each condition was measured by absorption at 260 and 280 wavelengths using quartz cuvettes by ultraviolet spectrophotometry (Hitachi U2010 spectrophotometer).
RT-PCR analysis of 27-OHase: 27-OHase and ABCA1 mRNA were quantitated by real-time PCR. cDNA was copied from 5 μg of total RNA using M-MLV reverse transcriptase primed with oligo dT. Equal amounts of cDNA were taken from each RT reaction mixture for PCR amplification using cholesterol 27-OHase-specific primers or ABCA1 specific primers as well as glyceraldehyde-3-phosphate dehydrogenase (GAPDH) control primers. The cholesterol 27-OHase-specific primers span a 311 base-pair sequence encompassing nucleotides 491-802 of the human cholesterol 27-OHase cDNA (24). ABCA1 primers yield a 234 BP amplified fragment. Real-time PCR analysis was performed using the SYBR Green PCR Reagents Kit (Applied Biosystems) with a Stratagene MX3005P QPCR System.
PCR was performed using techniques as follows. Each PCR reaction contained 2.5 μl of the 10 × fluorescent green buffer, 3 μl of 25 mM MgCl2, 2 μl dNTP mix (2500 μM dCTP, 2500 μM dGTP, 2500 μM dATP, and 5000 μM dUTP), 0.15 μl polymerase (5 U/μl; AmpliTaq Gold; Applied Biosystems), 0.25 μl uracil-N-glycosylase (1 U/μlUNG; AmpErase; Applied Biosystems), 0.5 μl of the forward and reverse primers (10 μM concentration), 4 μl cDNA, and water to a final volume of 25 μl. The thermal cycling parameters were as follows: 5 minutes at 95° C. to activate the polymerase (AmpliTaq Gold; Applied Biosystems), followed by 45 cycles of 30 seconds at 95° C. and 45 seconds at 58° C. then 45 seconds at 72° C. Each reaction was done in triplicate.
The amounts of PCR products were estimated, using software provided by the manufacturer (Stratagene). After completion of PCR cycles, the reactions were heat denatured over a 35° C. temperature gradient from 60° C. to 95° C. To correct for differences in cDNA load among samples, the target PCRs were normalized to a reference PCR involving the endogenous housekeeping genes glyceraldehyde-3-phosphate dehydrogenase (GAPDH) and β-actin. Nontemplate controls were included for each primer pair to check for significant levels of any contaminants. Fluorescence emission spectra were monitored and analyzed.

[3] = tested on: ABCA1 mRNA in THP-1 cells; assay: ABCA1 mRNA by real-time PCR in THP-1 cells; format: cell-based, human; conditions: for effect on ABCA1 message: THP-1 monocytes/macrophages
[4] = rats, IV dose 0.3 mg/kg; cited from earlier work
[5] = tested on: cholesterol 27-OHase protein in THP-1 cells; assay: 27-OHase protein by Western immunoblot in THP-1 monocytes; format: cell-based, human; conditions: NS-398 50 μM
Experimental: Western Blots: Total cell lysates were prepared for Western immunoblotting using RIPA lysis buffer (98% PBS, 1% Igepal CA-630, 0.5% sodium deoxycholate, 0.1% sodium dodecyl sulfate [SDS]). 100 μl of RIPA lysis buffer and 10 μl of protease inhibitor cocktail (Sigma) were added to the cell pellet from each condition and incubated on ice for 35 minutes with vortexing every 5 min. Supernatants were collected after centrifuging at 10,000 g at 4° C. for 10 minutes using an Eppendorf 5415C centrifuge. The quantity of protein in each supernatant was measured by absorption at 560 nm using a Hitachi U2010 spectrophotometer.
Total cell lysate was used for Western blots. Protein samples ([…]) were boiled for 5 minutes, loaded onto a 10% polyacrylamide gel, electrophoresed for 1.5 hr at 100V then transferred to a nitrocellulose membrane in a semi-dry transblot apparatus for 1 hour at 100V. […] The five washes in TTBS were repeated, then the immunoreactive protein was detected using ECL western blotting detection reagent (Amersham Biosciences, Cat No RPN2106) and film development in SRX-101A (Konica Minolta).
As a control, on the same transferred membrane, beta-actin was detected using mouse anti-beta-actin (diluted in 1:1000, from abCam, product Code: ab6276) and ECL sheep anti-mouse-IgG Horseradish peroxidase-linked species-specific whole antibody (diluted in 1:2000, from Amersham Biosciences, product Code NA931) and all other similar steps as above.
Total cell lysate was isolated for Western immunoblotting using RIPA lysis buffer (98% PBS, 1% Igepal CA-630, 0.5% sodium deoxycholate, 0.1% SDS). […] The quantity of protein in each supernatant was measured by absorption at 560 nm using a Hitachi U2010 spectrophotometer.
Cultured TUP-1 monocytic cells were untreated or exposed to NS-398 (50 μM, 18 hr) then untreated or exposed to increasing doses of MTX for 24 hr. Total cell protein was isolated and 27-OHase detected with specific rabbit polyclonal anti-human 27-OHase antibody. […]

[6] = tested on: 27-OHase mRNA in Balb/C murine macrophages; assay: 27-OHase mRNA in Balb/C murine macrophages; format: cell-based; conditions: 10^−5M, 3 hours, 37° C., n=3 per group
Source text: A number of different highly receptor-specific agonists and antagonists of adenosine receptors have been developed that either mimic or block the effects of adenosine. […] Based on the upregulation of 27-OHase in murine cells upon exposure to CGS-21680, the same effect was established in human monocytoid cells. In THP-1 cells, ABCA1 mRNA increased in concert with 27-OHase.

[7] = tested on: 27-OHase in peripheral blood monocytes; assay: 27-OHase in healthy monocytes isolated from peripheral blood (PBMC); format: cell-based, human; conditions: MTX 5 μM, 18 h
Experimental: PBMC (peripheral blood mononuclear cell) isolation: Blood from healthy donors was collected in EDTA treated tubes, pooled and kept at 4° C. The pooled blood was adjusted to a density of 1.120 g/ml with the addition of OptiPrep Density Gradient Media (Sigma) according to the manufacturer's instructions. The blood was then overlaid with a 1.074 g/ml density solution composed of complete RPMI containing 10% FBS and OptiPrep media. A layer of complete RPMI containing 10% FBS was then overlaid on top to prevent monocytes from sticking to the plastic tube. The blood was centrifuged at 750 g for 30 minutes at 4° C. After centrifugation, the monocyte interphase was collected from between the 1.074 g/ml and RPMI layer. The collected cells were diluted with 2 volumes of complete RPMI and harvested by centrifugation. The pellet was re-suspended in complete RPMI. The monocytes were counted by hemocytometer and plated at a density of 2×10^6 cells/well in a 6-well plate.
PBMC: PBMC were incubated for 18 h in RPMI with 10% FBS with and without the addition of MTX at a concentration of 5 μM. Cells were collected and RNA isolated.

[8] = THP-1 macrophages, acetylated LDL
[9] = acetylated LDL-treated THP-1 macrophages, MTX series, control 39.3±5.0%, n=3
[10] = vs NS-398 alone, NS-398 50 μM, CGS-21680 10 μM, 18 hrs

## Cc1ccc(-c2cc(C(F)(F)F)nn2-c2ccc(S(N)(=O)=O)cc2)cc1 [Celecoxib, celecoxib]
THP-1 macrophages; 50 μM, acetylated LDL loading, control 39.1%±5.4
  foam cells: 95.0%±0.7
[1]
  decrease in ABCA1 protein expression vs. control: 25.6%±1.3

## COC(=O)N1CCC(CC#Cc2nc(N)c3ncn([C@@H]4O[C@H](C(=O)NC5CC5)[C@@H](O)[C@H]4O)c3n2)CC1 [ATL313]
[2]
  effect on 27-OHase message: increases 27-OHase message
[3]
  effect on ABCA1 message: increases 27-OHase as shown in FIG. 3b and ABCA1 mRNA and protein

## Nc1nc(OCCc2ccc(Cl)cc2)nc2c1ncn2[C@@H]1O[C@H](CO)[C@@H](O)[C@H]1O [MRE-0094]
[2]
  increase in 27-OHase message: 2 fold
[3]; THP-1 cells
  increase in ABCA1 mRNA expression: 1.8 fold

## IFN-γ: recombinant human IFN-γ, atherosclerosis-promoting cytokine (R&D Systems)
[2]
  effect on 27-OHase message: decreasing 27-OHase and ABCA1 message and protein expression
THP-1 macrophages; [8]
  effect on foam cell formation: formed foam cells more rapidly and in greater proportion than untreated control cells
THP-1 macrophages; [9]
  foam cells: 71.0±5.0%

## CCNC(=O)[C@H]1O[C@@H](n2cnc3c(N)nc(NCCc4ccc(CCC(=O)O)cc4)nc32)[C@H](O)[C@@H]1O [CGS-21680, 2-(4-(2-carboxyethyl)phenethylamino)-5′-N-ethylcarboxamidoadenosine]
[2]
  increase in 27-OHase message: ≤ 1.8 fold
[2]; [10]
  increase in 27-OHase mRNA on addition of CGS-21680 to NS-398-treated THP-1 cells: 184%
[3]; [10]
  increase in ABCA1 mRNA on addition of CGS-21680 to NS-398-treated THP-1 cells: 141%
[4]
  terminal half-life: 19 ± 4 min
[5]
  effect on 27-OHase protein: this decrease is reversed by the addition of the adenosine A2A agonist CGS-21680
[6]
  increase in 27-OHase mRNA expression: 47±6.2%

## Nc1nc(NCCc2ccc(O)cc2)nc2nc(-c3ccco3)nn12 [ZM-241385]
[2]; THP-1, ZM-241385 with ATL313 or MRE-0094
  reversal by A2A antagonist of agonist-induced rise in 27-OHase (and ABCA1) message: this is reversed by ZM-241385; also recorded: reversed the effect of MRE-0094 on both these messages
THP-1 macrophages; [8]
  effect on foam cell formation: prevents MTX from decreasing NS-398-induced foam cell formation
THP-1 macrophages; acetylated LDL-treated THP-1 macrophages, ZM-241385 then MTX
  foam cells after preincubation with A2A antagonist prior to MTX treatment: 62.1±1.5%

## CS(=O)(=O)Nc1ccc([N+](=O)[O-])cc1OC1CCCCC1 [NS-398]
[2]
  effect on 27-OHase message: dramatically reduced cholesterol 27-OHase message
[2]; NS-398 50 μM, CGS-21680 10 μM
  27-OHase mRNA, % of control: 71.1±4.3% and 58.9±2.3% and 62.4±2.2%
[3]; THP-1 cells, NS-398 50 μM, CGS-21680 10 μM, 18 hrs, untreated = 100%, n=3
  ABCA1 mRNA, % of control: 71.1±3.9% and 60.49±4.42%
[5]
  effect on 27-OHase protein: 27-OHase protein expression decreased
THP-1 macrophages; THP-1 macrophages, NS-398 (10 μM, 18 hours), acetylated LDL, control 20.1±3.4%
  foam cell transformation: 42.7±6.6%
THP-1 macrophages; [9]
  foam cells: 72.7±4.9%

## CN(Cc1cnc2nc(N)nc(N)c2n1)c1ccc(C(=O)N[C@@H](CCC(=O)O)C(=O)O)cc1 [MTX, methotrexate]
[2]
  effect on 27-OHase message: completely blocked NS-398-induced downregulation of 27-OHase message
[2]; NS-398 50 μM, CGS-21680 10 μM
  27-OHase mRNA, % of control: 113.9±6.4%
[3]
  effect on ABCA1 message: effective in blocking COX-2 inhibitor-mediated downregulation of ABCA1 message
[5]
  effect on 27-OHase protein: corrected with increasing concentrations of MTX
[7]
  effect on 27-OHase in peripheral blood monocytes: increases 27-OHase
